Assay results as given in US11919860B1 (priority 2023, dated 2024).

How the values were obtained:
[1] = test system: MDR strain of Mycobacterium tuberculosis; assay: Anti-tubercular activity, colorimetric Resazurin Microplate Assay (REMA); format: cell-based; conditions: 192 h, read-out: Anti-tubercular activity against Mycobacterium tuberculosis MDR (MIC)
[2] = test system: XDR strain of Mycobacterium tuberculosis; assay: as above; format: cell-based; conditions: 192 h, read-out: Anti-tubercular activity against Mycobacterium tuberculosis XDR (MIC)

Row | SMILES | MIC [1] [µg/mL] | MIC [2] [µg/mL]
1 | CC(C)OC(=O)c1cc[n+](CC(=O)c2ccccc2)cc1.[Br-] [Compound 4a, 4-(Isopropoxycarbonyl)-1-(2-oxo-2-phenylethyl)pyridin-1-ium Bromide] | 2 | 2
2 | CC(C)OC(=O)c1cc[n+](CC(=O)c2ccc(F)cc2)cc1.[Br-] [Compound 4b, 1-(2-(4-Fluorophenyl)-2-oxoethyl)-4-(isopropoxycarbonyl)pyridin-1-ium bromide] | 1 | 16
